Assay results from ChEMBL document CHEMBL3886567, “Fused tricyclic compounds as Raf kinase inhibitors” (2016).

Columns and labels:
[1] = molecular target: RAF proto-oncogene serine/threonine-protein kinase (Homo sapiens, UniProt P04049, Y340D/Y341D); experiment: (§1) Raf IC50 Assay: Compounds disclosed herein were tested against B-Raf (V600E) (PV3849, from Invitrogen) or C-Raf (Y340D/Y341D) (PV3805, from Invitrogen) in a time-resolved fluorescence energy transfer assay. The assay was carried out in reactions (10 uL) containing 0.0625 nM B-Raf or 0.5 nM C-Raf, 25 mM Tris pH7.4, 10 mM MgCl2, 0.5 mM EGTA, 0.5 mM […], 5 mM beta-glycerophosphate, 0.01% Triton X-100, 2.5 mM DTT, 0.1% BSA, 0.1 mM ATP, 13.7 nM GST-tagged MEK1 (Full-length protein with K97R mutation, recombinant protein purified from bacterial expression system) and 0-5 uM compounds disclosed herein (final concentration of 1% DMSO). The enzyme was incubated with the compounds at room temperature for 60 minutes and the reactions were initiated by the addition of ATP and GST-MEK1. After incubating at room temperature for 60 minutes, an equal volume of stop buffer containing 25 mM Tris pH7.4, 400 mM KF, 50 mM EDTA, 0.01% BSA, 0.01% Triton X-100, 1 test of Eu3+ Cryptate-conjugated rabbit polyclonal antibody anti-Phospho MEK1/2 (Ser217/221) and 1 test of d2-conjugated mouse monoclonal antibody anti-glutathione S-transferase was added to stop the reactions. Plates were sealed and incubated at room temperature for 2 hours, and then the TR-FRET signals were read on BMG PHERAstar FS instrument. The IC50 for each compound was calculated by non linear regression by Graphpad Prism software.
RAF proto-oncogene serine/threonine-protein kinase, sequence (P04049 whole entry Y340D/Y341D): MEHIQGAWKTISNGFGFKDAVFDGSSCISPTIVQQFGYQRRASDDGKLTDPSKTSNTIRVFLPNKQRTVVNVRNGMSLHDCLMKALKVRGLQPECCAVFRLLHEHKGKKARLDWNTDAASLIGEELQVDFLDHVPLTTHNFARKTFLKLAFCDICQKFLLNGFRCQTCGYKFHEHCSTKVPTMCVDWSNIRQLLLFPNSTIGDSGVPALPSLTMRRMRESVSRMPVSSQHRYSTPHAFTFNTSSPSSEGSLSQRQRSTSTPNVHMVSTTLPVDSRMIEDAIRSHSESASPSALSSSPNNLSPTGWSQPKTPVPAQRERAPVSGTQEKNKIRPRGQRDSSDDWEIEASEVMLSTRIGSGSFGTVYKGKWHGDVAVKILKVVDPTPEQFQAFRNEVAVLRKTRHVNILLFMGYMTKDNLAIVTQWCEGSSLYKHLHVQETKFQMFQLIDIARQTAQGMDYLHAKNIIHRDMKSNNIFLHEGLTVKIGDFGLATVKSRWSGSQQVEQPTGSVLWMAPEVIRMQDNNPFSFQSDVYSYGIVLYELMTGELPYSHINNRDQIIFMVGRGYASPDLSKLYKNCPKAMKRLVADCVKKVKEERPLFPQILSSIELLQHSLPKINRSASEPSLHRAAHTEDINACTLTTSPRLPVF

[2] = molecular target: Serine/threonine-protein kinase B-raf (Homo sapiens, UniProt P15056, V600E); experiment: as §1
Serine/threonine-protein kinase B-raf, sequence (P15056 2-766 V600E limits assumed): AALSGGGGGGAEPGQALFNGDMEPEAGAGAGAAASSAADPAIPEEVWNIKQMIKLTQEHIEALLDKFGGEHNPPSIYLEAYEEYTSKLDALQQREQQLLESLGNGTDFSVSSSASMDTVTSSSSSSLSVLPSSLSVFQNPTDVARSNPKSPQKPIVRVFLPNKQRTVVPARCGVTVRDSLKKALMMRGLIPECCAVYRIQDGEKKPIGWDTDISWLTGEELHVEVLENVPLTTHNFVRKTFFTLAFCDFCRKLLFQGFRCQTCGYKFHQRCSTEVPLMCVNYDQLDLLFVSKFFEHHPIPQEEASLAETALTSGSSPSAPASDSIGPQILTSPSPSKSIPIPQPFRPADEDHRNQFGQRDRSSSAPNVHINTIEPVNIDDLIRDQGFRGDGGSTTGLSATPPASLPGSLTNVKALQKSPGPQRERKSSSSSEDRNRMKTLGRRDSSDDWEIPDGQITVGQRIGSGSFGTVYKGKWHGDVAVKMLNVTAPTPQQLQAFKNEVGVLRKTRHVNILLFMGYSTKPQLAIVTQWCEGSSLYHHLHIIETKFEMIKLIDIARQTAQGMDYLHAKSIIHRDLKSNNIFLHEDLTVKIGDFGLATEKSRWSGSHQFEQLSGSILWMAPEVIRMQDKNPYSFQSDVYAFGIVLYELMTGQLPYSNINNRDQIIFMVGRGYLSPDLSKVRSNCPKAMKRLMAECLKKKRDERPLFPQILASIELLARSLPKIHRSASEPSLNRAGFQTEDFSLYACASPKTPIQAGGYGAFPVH

Compound	IC50 [1]	IC50 [2]
O=C1CCc2c(Oc3ccc4c(c3)C3C(O4)C3c3nc4cc(Cl)c(C(F)(F)F)cc4[nH]3)ccnc2N1 (racemic)	5 nM	
O=C1CCc2c(Oc3ccc4c(c3)C3C(C4)C3c3nc4ccc(C(F)(F)F)cc4[nH]3)ccnc2N1 (racemic)	12 nM	72 nM
O=C1CCc2c(ncc(Cl)c2Oc2ccc3c(c2)C2C(O3)C2c2nc3ccc(C(F)(F)F)cc3[nH]2)N1 (racemic)	432 nM	> 1000 nM
O=C1CCc2c(Oc3ccc4c(c3)C3C(O4)C3c3nc4cccc(Cl)c4[nH]3)ccnc2N1 (racemic)	< 0.25 nM	16 nM
O=C1CCc2c(Oc3ccc4c(c3)C3C(O4)C3c3nc4ccc(-c5ccccc5)cc4[nH]3)ccnc2N1 (racemic)	81 nM	232 nM
O=C1CCc2c(Oc3ccc4c(c3)C3C(O4)C3c3nc4ccc(C(F)(F)F)cc4[nH]3)ccnc2N1 (racemic)	1.4 nM	7.2 nM
